The numbers were not newly measured in patent US11324965B2, “Non-invasive energy upconversion methods and systems” (IMMUNOLIGHT, LLC., priority 2009, dated 2022), which cites them from elsewhere.

SMILES strings stand for the structures. Like-named read-outs stand apart in the source and are kept apart here. Square brackets hold non-standard residues; d marks the D form. Peptide text beside a SMILES is read from it. Bpa = N[CH](Cc1ccc(C(=O)c2ccccc2)cc1)C(=O)O; 2Nal = N[CH](Cc1ccc2ccccc2c1)C(=O)O; Aib = CC(C)(N)C(=O)O

For data set [1] the following is noted: for KSSET (Average): average over λex 224, 266, 280 nm.
The test system of the next data set is tumors. Particulars: in vivo.
The conditions of data set [2]: orange juice, high UV exposure of 100 mJ/cm^2.

On to `C=C(NC(C)(C)C(=O)NC(Cc1ccc2ccccc2c1)C(=O)NC(C)(C)C(=O)NC(Cc1ccc(C(=O)c2ccccc2)cc1)C(=O)NC(C)(C)C(=O)NC(C)C(=O)O)C(C)NC(=O)[C@@H](C)N` (single isomer, unassigned) [Compound 2A], for which the “KSSET (Average)” value in data set [1] is reported as 3 × 10^7 S^−1. Also, the values for the KSSET in data set [1] (λex 224 nm), in data set [1] (λex 266 nm) and in data set [1] (λex 280 nm) were 2.1 × 10^7 S^−1, 3.7 × 10^7 S^−1 and 3.2 × 10^7 S^−1, respectively.

Turning to `C=C(NC(C)(C)C(=O)NC(Cc1ccc2ccccc2c1)C(=O)NC(C)(C)C(=O)NC(Cc1ccc(C(=O)c2ccccc2)cc1)C(=O)NC(C)(C)C(=O)NC(C)C(=O)O)C(C)NC(=O)[C@@H](C)N` (single isomer, unassigned) [Compound 2B], the “KSSET (Average)” value in data set [1] is listed as 3.9 × 10^7 S^−1. The figures for the KSSET in data set [1] (λex 224 nm), in data set [1] (λex 266 nm) and in data set [1] (λex 280 nm) were 3.1 × 10^7 S^−1, 3.9 × 10^7 S^−1 and 4.7 × 10^7 S^−1, respectively.

For `CC1NC(=O)C(C)(C)NC(=O)C(Cc2ccc(C(=O)c3ccccc3)cc2)NC(=O)C(C)(C)NC(=O)C(C)NC(=O)C(C)(C)NC(=O)C(Cc2ccc3ccccc3c2)NC(=O)C(C)(C)NC1=O` (centres unmarked) [Compound 1A] (cyclo([Aib][2Nal][Aib]A[Aib][Bpa][Aib]A); configuration not given here), the “KSSET (Average)” value in data set [1] is on record as 3.67 × 10^7 S^−1. Besides, the KSSET was 3.8 × 10^7 S^−1 in data set [1] (λex 224 nm), 3.6 × 10^7 S^−1 in data set [1] (λex 266 nm) and 3.6 × 10^7 S^−1 in data set [1] (λex 280 nm).

Consider `CC(NC(=O)C(C)(C)NC(=O)C(Cc1ccc(C(=O)c2ccccc2)cc1)NC(=O)C(C)(C)NC(=O)C(C)NC(=O)C(C)(C)NC(=O)C(Cc1ccc2ccccc2c1)NC(=O)C(C)(C)N)C(=O)O` (centres unmarked) [Compound 1B] (H-[Aib][2Nal][Aib]A[Aib][Bpa][Aib]A-OH; configuration not given here), for which the “KSSET (Average)” value in data set [1] was 1.87 × 10^8 S^−1. Besides, the results for the KSSET in data set [1] (λex 224 nm), in data set [1] (λex 266 nm) and in data set [1] (λex 280 nm) were 2.44 × 10^8 S^−1, 1.8 × 10^8 S^−1 and 1.36 × 10^8 S^−1, respectively.

As to `Oc1cccc(-c2c3nc(c(-c4cccc(O)c4)c4ccc([nH]4)c(-c4cccc(O)c4)c4nc(c(-c5cccc(O)c5)c5ccc2[nH]5)CC4)C=C3)c1` [Foscan, Tetra (m-hydroxyphenyl) chlorin], under “in vivo”, the “duration of skin photosensitivity” value is listed as “approximately 2 weeks”.

For `CC(=O)[O-].CC(=O)[O-].CCc1c(CC)c2cc3nc(cnc4cc(OCCOCCOCCOC)c(OCCOCCOCCOC)cc4ncc4nc(cc1[n-]2)C(CCCO)=C4C)C(C)=C3CCCO.O.[Lu+3]` [Lutetium texaphryin, Motexafin lutetium], the “selectivity for tumors compared to normal tissues” value with tumors is reported as “one of the greatest reported selectivities for tumors”. The “duration of skin photosensitivity” value (clinical use) was 24 to 48 h.

With `O=C1O[C@H]([C@@H](O)CO)C(O)=C1O` [Vitamin C], the “degradation of Vitamin C” value in data set [2] is 17%.
